The values below are quoted from earlier work in patent US5315013A, “Substituted pyrazole angiotensin II antagonists” (E. I. Du Pont de Nemours and Company, priority 1992, dated 1994).

Structures are written as SMILES.

With `CNCC(=O)N[C@@H](CCCN=C(N)N)C(=O)N[C@H](C(=O)N[C@@H](Cc1ccc(O)cc1)C(=O)N[C@H](C(=O)N[C@@H](Cc1cnc[nH]1)C(=O)N1CCC[C@H]1C(=O)N[C@@H](C)C(=O)O)C(C)C)C(C)C` [Saralasin], the “effects of AII on the blood pressure blocked” value in the data set on AII (pithed rats) is on record as “blocks the effects of AII on the blood pressure of pithed rats”. Besides, the “competitive antagonism of the actions of AII” value with AII (potency in words) is on record as “one of the most potent competitive antagonists of the actions of AII”. The “lowering of arterial pressure” value with arterial pressure (mammals and man, elevated pressure dependent on circulating AII) was “demonstrated to lower arterial pressure in mammals and man”. The “effect of oral doses” value in the data set with arterial pressure (oral) was “oral doses being ineffective”. The “pressor effects (agonistic character)” value in the data set with arterial pressure (pressure not sustained by AII) is “generally elicits pressor effects when the pressure is not sustained by AII”.
